Here are results for 39 compounds from patent US12006294B2, “Therapeutic compounds” (REGENTS OF THE UNIVERSITY OF MINNESOTA, priority 2017, dated 2024).

SMILES strings stand for the structures. Counter-ions that a name gives are not always drawn. Like-named read-outs stand apart in the source and are kept apart here.

This assay has as its system Hela Cells. The experiment in a line: Cellular ER stress model (tunicamycin, WST-8 cell viability). The conditions noted are these: for viability at 2.5 µM: Homo sapiens, HeLa, 48 h. (Tetrazolium dyes change colour on reduction, which living cells bring about.)
The mark [1] stands for this setting: read-out: % Cell Survival Cmpd(2.5 μM) + Tuni, Hela cells, compound 2.5 μM + tunicamycin, WST-8 viability 48 hours after tunicamycin treatment.
[2] abbreviates: read-out: Compounds ERS (vs Tn), ERS activity vs Tuni = % cell survival (compound)/% cell survival (tunicamycin), compound 2.5 μM.
Setting [3] is: read-out: % Cell Survival Cmpd(2.5 μM) + Tuni.
[4] abbreviates: read-out: Compounds ERS (vs Tn).

On to `Clc1cccc(CC2=NCCCN2)c1Cl` [JM3-181-2, 2-(2,3-dichlorobenzyl)-1,4,5,6-tetrahydropyrimidine], for which the viability at 2.5 µM by setting is: under setting [1], 19.6%; under setting [2], 102%. Consider `N=C(N)Nc1ccnn1-c1c(Cl)cccc1Cl` [JM1-285-2, 1-(1-(2,6-dichlorophenyl)-1H-pyrazol-5-yl)guanidine], for which the viability at 2.5 µM under setting [1] is 41.9% and the viability at 2.5 µM under setting [2] came out at 101%. Regarding `N=C(N)N/N=C/c1c(O)cccc1Cl` [BC2-59-2], the viability at 2.5 µM came out at 39% under setting [3] and 94% under setting [4].

As for `N=C(N)N/N=C/Cc1c(Cl)cccc1Cl` [JM3-239-2, (E)-2-(2-(2,6-dichlorophenyl)ethylidene)hydrazine-1-carboximidamide acetate], the viability at 2.5 µM is, setting by setting: under setting [1], 28.1%; under setting [2], 119%. With `CC(C)c1cccc(C(C)C)c1/C=N/NC(=N)N` [JM3-99-2, (E)-2-(2,6-diisopropylbenzylidene)hydrazine-1-carboximidamide], the viability at 2.5 µM by setting is: under setting [1], 20.9%; under setting [2], 91%. For the compound `CC(Oc1c(Cl)cccc1Cl)C1=NCCN1` (centres unmarked) [Lofexidine Hcl], the viability at 2.5 µM under setting [1] was 35.4% and the viability at 2.5 µM under setting [2] is 107%.

In the case of `CC(C1=NCCN1)c1c(Cl)cccc1Cl` (centres unmarked) [JM2-101-2, 2-(1-(2,6-dichlorophenyl)ethyl)-4,5-dihydro-1H-imidazole], the viability at 2.5 µM under setting [1] is 49.5% and the viability at 2.5 µM under setting [2] was found to be 107%. On to `Cc1cc(=O)nc(N/N=C/c2c(Cl)ccc(Cl)c2Cl)[nH]1` [JM3-201-2, (E)-6-methyl-2-(2-(2,3,6-trichlorobenzylidene)hydrazinyl)pyrimidin-4(1H)-one], for which the viability at 2.5 µM reads like this: under setting [1], 20%; under setting [2], 104%. As to `Clc1cccc(/C=N/NC2=NCCN2)c1Cl` [JM3-149-2, (E)-2-(2-(2,3-dichlorobenzylidene)hydrazinyl)-4,5-dihydro-1H-imidazole hydrochloride], the viability at 2.5 µM is 29.1% under setting [1] and 125% under setting [2].

For the compound `Clc1ccc(Cl)c(/C=N/NC2=NCCCN2)c1Cl` [JM3-155-2, (E)-2-(2-(2,3,6-trichlorobenzylidene)hydrazinyl)-1,4,5,6-tetrahydropyrimidine hydrochloride], the viability at 2.5 µM is, setting by setting: under setting [1], 31.2%; under setting [2], 135%. For `CN(/N=C/c1c(Cl)cccc1Cl)C(=N)N` [JM3-257-2, (E)-2-(2,6-dichlorobenzylidene)-1-methylhydrazine-1-carboximidamide hydroiodide] the same measures were 31.2% and 132%.

As to `NC(=O)N/N=C/c1ccccc1I` [JM3-225-2, (E)-2-(2-iodobenzylidene)hydrazine-1-carboxamide hydrochloride], the viability at 2.5 µM amounted to 22.8% under setting [1] and 96% under setting [2]. For `N=C(N)N/N=C/c1c(F)cccc1F` [JM1-191-2, (E)-2-(2,6-difluorobenzylidene)hydrazine-1-carboximidamide acetate], the viability at 2.5 µM reads like this: under setting [1], 45.7%; under setting [2], 66%.

For `N=C(N)N/N=C/c1cccs1` [JM2-279-2, (E)-2-(thiophen-2-ylmethylene)hydrazine-1-carboximidamide], the viability at 2.5 µM is, setting by setting: under setting [1], 32.1%; under setting [2], 122%.

Consider `NC(=S)N/N=C/c1ccc2ccccc2c1` [JM1-129-2, (E)-2-(naphthalen-2-ylmethylene)hydrazine-1-carbothioamide], for which the viability at 2.5 µM under setting [1] stood at 24.1% and the viability at 2.5 µM under setting [2] was determined as 35%. For `N=C(N/N=C/c1c(Cl)cccc1Cl)Nc1ccccc1` [JM2-175-2, (E)-2-(2,6-dichlorobenzylidene)-N-phenylhydrazine-1-carboximidamide hydroiodide] the same measures were 34.3% and 108%.

Consider `N=C(N)N/N=C/c1c(F)cccc1C(F)(F)F` [JM1-223-2, (E)-2-(2-fluoro-6-(trifluoromethyl)benzylidene)hydrazine-1-carboximidamide acetate], for which the viability at 2.5 µM reads like this: under setting [1], 37.5%; under setting [2], 54%. Consider `Clc1ccccc1/C=N/NC1=NCCN1` [JM2-113-2, (E)-2-(2-(2-chlorobenzylidene)hydrazinyl)-4,5-dihydro-1H-imidazole hydrochloride], for which the viability at 2.5 µM runs as follows: under setting [1], 35.2%; under setting [2], 111%. For `N=C(N)N/N=C/c1cc(Cl)ccc1Cl` [JM3-11-2, (E)-2-(2,5-dichlorobenzylidene)hydrazine-1-carboximidamide acetate] the same measures were 40.2% and 153%. For `Cc1cccc(C)c1NC1=NCCN1` [JM2-59-2, N-(2,6-dimethylphenyl)-4,5-dihydro-1H-imidazol-2-amine], the viability at 2.5 µM reads like this: under setting [3], 46.2%; under setting [4], 67%. On to `Cc1cc(=O)nc(N/N=C/c2cccc(Cl)c2Cl)[nH]1` [JM3-199-2, (E)-2-(2-(2,3-dichlorobenzylidene)hydrazinyl)-6-methylpyrimidin-4(1H)-one], for which the viability at 2.5 µM runs as follows: under setting [1], 22.9%; under setting [2], 120%. In the case of `Fc1cccc(Cl)c1/C=N/NC1=NCCN1` [JM2-95-2, (E)-2-(2-(2-chloro-6-fluorobenzylidene)hydrazinyl)-4,5-dihydro-1H-imidazole hydrochloride], the viability at 2.5 µM is, setting by setting: under setting [1], 53%; under setting [2], 121%. As to `N=C(N)NNCc1c(Cl)cccc1Cl` [JM3-227-2, 2-(2,6-dichlorobenzyl)hydrazine-1-carboximidamide], the “% Cell Survival Cmpd(2.5 μM) + Tuni” value (Hela cells, compound 2.5 μM + tunicamycin, WST-8 viability 48 hours after tunicamycin treatment) is recorded as 27.92%. Take `NC(=O)N/N=C/c1ccccc1Br` [JM3-219-4, (E)-2-(2-bromobenzylidene)hydrazine-1-carboxamide hydrochloride]: the viability at 2.5 µM came to 20% under setting [1] and 104% under setting [2]. Turning to `CCc1cccc(CC)c1/C=N/NC(=N)N` [JM2-233-2], the viability at 2.5 µM was determined as 31.8% under setting [1] and 121% under setting [2]. For `CCc1cccc(Cl)c1/C=N/NC(=N)N` [JM3-81-2, (E)-2-(2-chloro-6-ethylbenzylidene)hydrazine-1-carboximidamide acetate] the same measures were 29.9% and 130%. As for `N=C(N)NC(=O)Cc1c(Cl)cccc1[N+](=O)[O-]` [JM2-275-2, N-carbamimidoyl-2-(2-chloro-6-nitrophenyl)acetamide hydrochloride], the viability at 2.5 µM was found to be 29.8% under setting [1] and 101% under setting [2]. In the same order, the values of `O=[N+]([O-])c1cccc(Cl)c1/C=N/NC1=NCCN1` [JM2-89-2, (E)-2-(2-(2-chloro-6-nitrobenzylidene)hydrazinyl)-4,5-dihydro-1H-imidazole hydrochloride] are 56.9% and 130%. Take `Cc1cc(=O)nc(N/N=C/c2ccc(Cl)c(Cl)c2)[nH]1` [JM3-211-2, (E)-2-(2-(3,4-dichlorobenzylidene)hydrazinyl)-6-methylpyrimidin-4(1H)-one]: the viability at 2.5 µM by setting is: under setting [1], 20.2%; under setting [2], 105%.

For the compound `Clc1ccc(Cl)c(/C=N/NC2=NCCN2)c1Cl` [JM3-151-2, (E)-2-(2-(2,3,6-trichlorobenzylidene)hydrazinyl)-4,5-dihydro-1H-imidazole hydrochloride], the viability at 2.5 µM runs as follows: under setting [1], 24.2%; under setting [2], 104%. For `Clc1ccc(/C=N/NC2=NCCN2)cc1Cl` [JM2-91-2, (E)-2-(2-(3,4-dichlorobenzylidene)hydrazinyl)-4,5-dihydro-1H-imidazole hydrochloride] the same measures were 54.5% and 124%. In the same order, the values of `N=C(N)N/N=C/c1cc(F)ccc1Cl` [JM1-185-2, (E)-2-(2-chloro-5-fluorobenzylidene)hydrazine-1-carboximidamide acetate] are 54.4% and 79%. With `N=C(N)NCC(O)c1c(Cl)cccc1Cl` (centres unmarked) [JM3-27-2, 1-(2-(2,6-dichlorophenyl)-2-hydroxyethyl)guanidine], the viability at 2.5 µM was 28.6% under setting [1] and 109% under setting [2]. For `N=C(N)N/N=C/c1cc(C(F)(F)F)ccc1Cl` [JM1-221-2, (E)-2-(2-chloro-5-(trifluoromethyl)benzylidene)hydrazine-1-carboximidamide acetate] the same measures were 38.6% and 56%. Regarding `N=C1NCCCN1/N=C/c1c(Cl)cccc1Cl` [JM3-255-2, (E)-1-((2,6-dichlorobenzylidene)amino)tetrahydropyrimidin-2(1H)-imine hydrobromide], the viability at 2.5 µM was determined as 24.5% under setting [1] and 104% under setting [2]. In the same order, the values of `N=C(N)N/N=C/c1c(Cl)ccnc1Cl` [JM3-29-2, (E)-2-((2,4-dichloropyridin-3-yl)methylene)hydrazine-1-carboximidamide acetate] are 32.2% and 122%.

`Fc1ccccc1/C=N/NC1=NCCN1` [JM2-115-2, (E)-2-(2-(2-fluorobenzylidene)hydrazinyl)-4,5-dihydro-1H-imidazole hydrochloride]: the viability at 2.5 µM amounted to 35.6% under setting [1] and 112% under setting [2].

In the case of `Cc1cc(=O)nc(N/N=C/c2c(Cl)cccc2Cl)[nH]1` [JM3-197-2, (E)-2-(2-(2,6-dichlorobenzylidene)hydrazinyl)-6-methylpyrimidin-4(1H)-one], the viability at 2.5 µM reads like this: under setting [1], 20.4%; under setting [2], 106%. Consider `Clc1cccc(Cl)c1CC1=NCCN1` [JM2-87-2, 2-(2,6-dichlorobenzyl)-4,5-dihydro-1H-imidazole], for which the viability at 2.5 µM worked out at 54.3% under setting [1] and 124% under setting [2].
